Reference: US20110230481A2, “DERIVATIVES OF TETRABROMOBENZIMIDAZOLE, A PROCESS FOR THE PREPARATION THEREOF, A PHARMACEUTICAL COMPOSITION COMPRISING THE SAME, A METHOD OF USING THE SAME, A METHOD FOR MODULATING OR REGULATING SERINE/THREONINE KINASES, AND SERINE/THREONINE KINASES MODULATING AGENT” (SELVITA S.A., priority 2009, published 2011)
pIC50: −log10 of the molar value. Where two headings read alike, the source gives them in different places.

What was measured:
Assay in all cases: Growth inhibition test (MTS)
Type in all cases: cell-based
[1] = tested on: human prostate adenocarcinoma PC3 cells; conditions: PC-3; 72 hours
Description: (§1) Two thousand cells of human prostate adenocarcinoma PC3 were inoculated into each well of a 96-well microplate (manufactured by Corning Corp.), and using F12K (Ham's F12:RPMI 8226 1:1) medium (culture medium) containing 10% fetal calf serum (FCS). The same day, a dimethyl sulfoxide (DMSO) solution of each test compound prepared in a concentration of 10 mmol/L was further diluted with DMSO to the desired concentrations (0.1, 0.5, 1, 2.5, 5 and 10 micromol/L), and the diluted solution was added to each well. The individual wells were further cultured in 5% carbon dioxide at 37° C. for 72 hours. After completion of the culture, 10 μl MTS (3-(4,5-Dimethyl-2-thiazolyl)-5-(carboxymethoxyphenyl)-2-(4-sulfophenyl)-2H-tetrazolium, inner salt assay (CellTiter96® AQueous One Solution Cell Proliferation Assay, Promega) was added to each well, and culturing was performed in 5% carbon dioxide at 37° C. for 2 hours. Using a microplate spectrophotometer (Synergy 2 multi-mode microplate reader (BioTek)), the absorbance of each well was measured at 490 nm. The value for cells not incorporated with a test compound was designated as 100%. By comparing these values with the absorbance difference obtained at the well in which each test compound was added, the cell viability (% viability) after treatment with the test compound was calculated.

[2] = tested on: human myelomonocytic, biphenotypic leukemia MV4-11 cells; conditions: MV-4-11, 72 hours, read-out: Cytotoxicity in MTS assay (ED50); for pIC50: Homo sapiens, MV4-11
Description: as §1, with “Ten” for “Two”, “myelomonocytic, biphenotypic leukemia MV4-11” for “prostate adenocarcinoma PC3”, “Corp.)” for “Corp.), and”, “Iscove's MDM” for “F12K (Ham's F12:RPMI 8226 1:1)”

[3] = tested on: human prostate carcinoma DU145 cells; conditions: 72 hours
Description: as §1, with “carcinoma DU145” for “adenocarcinoma PC3”, “DMEM” for “F12K (Ham's F12:RPMI 8226 1:1)”, “innersalt” for “inner salt”

[4] = tested on: human chronic myelocytic leukemia K562 cells; conditions: 72 hours
Description: as §1, with “Ten” for “Two”, “chronic myelocytic leukemia K562” for “prostate adenocarcinoma PC3”, “Corp.)” for “Corp.), and”, “Iscove's MDM” for “F12K (Ham's F12:RPMI 8226 1:1)”

[5] = tested on: human chronic myelogenous leukemia MEG-01 cells; conditions: MEG01; 72 hours
Description: as §1, with “Ten” for “Two”, “chronic myelogenous leukemia MEG-01” for “prostate adenocarcinoma PC3”, “Corp.)” for “Corp.), and”, “RPMI” for “F12K (Ham's F12:RPMI”, “8226” for “8226 1:1)”

Row | SMILES | Cytotoxicity in MTS assay (ED50) [1] [µM] | pIC50 [2] | Cytotoxicity in MTS assay (ED50) [3] [µM] | Cytotoxicity in MTS assay (ED50) [4] [µM] | Cytotoxicity in MTS assay (ED50) [5] [µM] | IC50 [2] [µM]
1 | CN1CCN(c2nc3c(Br)c(Br)c(Br)c(Br)c3[nH]2)CC1 [Compound 21, 4,5,6,7-tetrabromo-2-(4-methylpiperazin-1-yl)-1H-benzo[d]imidazole] | >10 | 5.42 | 9.54 |  |  | 
2 | CN(C)c1nc2c(Br)c(Br)c(Br)c(Br)c2[nH]1 [DMAT, reference compound] | >10 |  | >10 | >10 | 8.91 | 3.15
3 | NCCCNc1nc2c(Br)c(Br)c(Br)c(Br)c2[nH]1 [Compound 11, N-(3-aminopropyl)-4,5,6,7-tetrabromo-1H-benzo[d]imidazol-2-amine] | 7.32 | 5.75 | 7.62 | 7.48 | 7.85 | 
4 | Brc1c(Br)c(Br)c2[nH]c(NCCN3CCCC3)nc2c1Br [Compound 14, 4,5,6,7-tetrabromo-N-(2-(pyrrolidin-1-yl)ethyl)-1H-benzo[d]imidazol-2-amine] | 5.47 | 5.89 | 3.14 |  | 3.35 | 
5 | Brc1c(Br)c(Br)c2[nH]nnc2c1Br [TBB, reference compound] | >10 |  | >10 | >10 | >10 | >10
6 | Brc1c(Br)c(Br)c2c(Br)n[nH]c2c1Br [Compound K64, reference compound] | >10 |  | >10 | >10 | >10 | >10
7 | Brc1c(Br)c(Br)c2[nH]c(NCCN3CCCCC3)nc2c1Br [Compound 13, 4,5,6,7-tetrabromo-N-(2-(piperidin-1-yl)ethyl)-1H-benzo[d]imidazol-2-amine] | 5.19 | 5.50 | 4.1 |  | 4.37 | 
8 | Brc1c(Br)c(Br)c2[nH]c(NCCN3CCOCC3)nc2c1Br [Compound 16, 4,5,6,7-tetrabromo-N-(2-morpholinoethyl)-1H-benzo[d]imidazol-2-amine] | >10 | 5.66 | 8.64 |  |  | 
9 | CN(C)c1nc2c(Br)c(Br)c(Br)c(Br)c2n1CC(=O)O [Compound K66, reference compound] | >10 |  | >10 | >10 | >10 | >10
10 | Brc1c(Br)c(Br)c2[nH]cnc2c1Br [TBI, reference compound] | >10 |  | >10 | >10 | >10 | >10
11 | Brc1c(Br)c(Br)c2[nH]c(N3CCNCC3)nc2c1Br [Compound 20, 4,5,6,7-tetrabromo-2-(piperazin-1-yl)-1H-benzo[d]imidazole] | 6.61 | 6.10 | 9.27 | 7.25 | 4.49 | 
